Numbered stars: 1 amine (or outer) side, 2 acyl side, 3 side chain; on linkers, the order of the positions; unused ones are H or OH. Bridge positions count the residues as written; N and C are the ends. Square brackets hold non-standard residues; d marks the D form. Peptide text beside a SMILES is read from it. Bip = N[C@@H](Cc1ccc(-c2ccccc2)cc1)C(=O)O; Phe(4-NH2) = Nc1ccc(C[C@H](N)C(=O)O)cc1; d(hPhe) = N[C@H](CCc1ccccc1)C(=O)O; Suc = O=C(CCC(=O)[*:2])[*:1]
Target: T1, TNFα / TNFα receptor (TNFα R1/Fc) (Homo sapiens, UniProt P01375)
T1 construct: purchased R&D Systems
T1 sequence (P01375 77-233 limits assumed, species assumed): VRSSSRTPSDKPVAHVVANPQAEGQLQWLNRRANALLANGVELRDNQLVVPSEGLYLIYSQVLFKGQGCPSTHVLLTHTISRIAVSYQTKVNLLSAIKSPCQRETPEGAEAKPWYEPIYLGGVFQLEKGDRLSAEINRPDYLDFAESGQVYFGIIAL
Assay: Inhibition of binding of TNFα to the TNFα receptor (plate ELISA competition)
Conditions: Table 2; read-out: Activity (IC50, inhibition of TNFα binding to TNFα R1/Fc)
Method in brief: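 Compound dilutions were preincubated 30 min at RT with 8.33 nM TNFα R1/Fc in PBST with 2% DMSO, then added to wells coated with 15 nM TNFα for 30 min. Bound receptor was detected with HRP anti-human Fc and TMB, read as A450.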

IC50: < 10 µM
Compound: O=C1CCC(=O)N[C@H](CCc2ccccc2)C(=O)N[C@@H](Cc2ccc(-c3ccccc3)cc2)C(=O)N[C@H](Cc2ccccc2)C(=O)N[C@H](C(=O)N[C@@H](Cc2ccccc2)C(=O)O)Cc2ccc(cc2)N1 [Compound 202] ([d(hPhe)][Bip][dF][Phe(4-NH2)]F-OH; linker N-4 via Suc)
